Data reported in patent publication US7109193B2, “Tricyclic diazepines tocolytic oxytocin receptor antagonists” (Wyeth, priority 2001, dated 2006).
Structures can show the parent of a compound that is named as a salt.

target: T1, human oxytocin receptor (Homo sapiens, UniProt P30559); assay: Oxytocin binding in Chinese Hamster Ovary cell membranes expressing human oxytocin receptors; settings: 100 nM, CHO cell membranes, [3H]oxytocin, values without parentheses, read-out: OT % inhibition @ 100% nM
T1 construct: host or cells: CHO cells (pcDNA3.1 vector)
T1 sequence (P30559 1-389): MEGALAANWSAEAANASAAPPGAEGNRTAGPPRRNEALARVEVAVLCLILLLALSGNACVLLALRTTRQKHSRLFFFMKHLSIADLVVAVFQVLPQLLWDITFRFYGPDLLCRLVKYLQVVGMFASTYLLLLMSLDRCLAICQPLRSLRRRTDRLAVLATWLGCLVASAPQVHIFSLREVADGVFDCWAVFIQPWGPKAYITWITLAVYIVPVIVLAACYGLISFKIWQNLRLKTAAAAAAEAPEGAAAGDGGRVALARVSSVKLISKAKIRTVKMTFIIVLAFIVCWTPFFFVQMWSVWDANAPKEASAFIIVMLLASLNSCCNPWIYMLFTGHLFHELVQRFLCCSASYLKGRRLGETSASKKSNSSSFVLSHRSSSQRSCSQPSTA

Compound	inhibition at 0.1 µM [%]
CN(C)CCCNC(=O)c1ccc2n1Cc1ccccc1N(C(=O)c1ccc(-c3cccc4ccccc34)cc1Cl)C2 [Example 83, 10-[2-Chloro-4-(1-naphthyl)benzoyl]-N-[3-(dimethylamino)propyl]-10,11-dihydro-5H-pyrrolo[2,1-c][1,4]benzodiazepine-3-carboxamide]	10
CN(C)CCN(C)C(=O)c1ccc2n1Cc1ccccc1N(C(=O)c1ccc(-c3cccc4ccccc34)cc1Cl)C2 [Example 96, 10-[2-Chloro-4-(1-naphthyl)benzoyl]-N-[2-(dimethylamino)ethyl]-N-methyl-10,11-dihydro-5H-pyrrolo[2,1-c][1,4]benzodiazepine-3-carboxamide]	54
COc1ccccc1-c1ccc(C(=O)N2Cc3ccc(C(=O)N(C)CCCN(C)C)n3Cc3ccccc32)cc1C [Example 100, N-[3-(Dimethylamino)propyl]-10-[(2′-methoxy-2-methyl[1,1′-biphenyl]-4-yl)carbonyl]-N-methyl-10,11-dihydro-5H-pyrrolo[2,1-c][1,4]benzodiazepine-3-carboxamide]	98
COc1cccc(-c2ccc(C(=O)N3Cc4ccc(C(=O)NCCCN(C)C)n4Cc4ccccc43)cc2OC)c1 [Example 82, 10-[(2,3′-Dimethoxy[1,1′-biphenyl]-4-yl)carbonyl]-N-[3-(dimethylamino)propyl]-10,11-dihydro-5H-pyrrolo[2,1-c][1,4]benzodiazepine-3-carboxamide]	50
COc1cccc(-c2ccc(C(=O)N3Cc4ccc(C(=O)N(C)CCN(C)C)n4Cc4ccccc43)cc2OC)c1 [Example 95, 10-[(2,3′-Dimethoxy[1,1′-biphenyl]-4-yl)carbonyl]-N-[2-(dimethylamino)ethyl]-N-methyl-10,11-dihydro-5H-pyrrolo[2,1-c][1,4]benzodiazepine-3-carboxamide]	97
COc1ccccc1-c1ccc(C(=O)N2Cc3ccc(C(=O)N(C)CCN(C)C)n3Cc3ccccc32)cc1C [Example 88, N-[2-(Dimethylamino)ethyl]-10-[(2′-methoxy-2-methyl[1,1′-biphenyl]-4-yl)carbonyl]-N-methyl-10,11-dihydro-5H-pyrrolo[2,1-c][1,4]benzodiazepine-3-carboxamide]	98
COc1ccccc1-c1ccc(C(=O)N2Cc3ccc(C(=O)N(C)CCN(C)C)n3Cc3ccccc32)cc1OC [Example 94, 10-[(2,2′-Dimethoxy[1,1′-biphenyl]-4-yl)carbonyl]-N-[2-(dimethylamino)ethyl]-N-methyl-10,11-dihydro-5H-pyrrolo[2,1-c][1,4]benzodiazepine-3-carboxamide]	94
COc1cc(C(=O)N2Cc3ccc(C(=O)N(C)CCCN(C)C)n3Cc3ccccc32)ccc1-c1ccccc1C [Example 105, N-[3-(Dimethylamino)propyl]-10-[(2-methoxy-2′-methyl[1,1′-biphenyl]-4-yl)carbonyl]-N-methyl-10,11-dihydro-5H-pyrrolo[2,1-c][1,4]benzodiazepine-3-carboxamide]	97
COc1cc(C(=O)N2Cc3ccc(C(=O)N(C)CCCN(C)C)n3Cc3ccccc32)ccc1-c1cccc2ccccc12 [Example 106, N-[3-(Dimethylamino)propyl]-10-[3-methoxy-4-(1-naphthyl)benzoyl]-N-methyl-10,11-dihydro-5H-pyrrolo[2,1-c][1,4]benzodiazepine-3-carboxamide]	88

same assay, conditions: CHO cell membranes, [3H]oxytocin, values in parentheses, read-out: OT (IC50)

Compound	IC50 [nM]
COc1cc(-c2ccccc2C)c(Cl)cc1C(=O)N1Cc2ccc(C(=O)N3CCC(N4CCCC4)CC3)n2Cc2ccccc21 [Example 136, {10-[(6-Chloro-3-methoxy-2′-methyl[1,1′-biphenyl]-4-yl)carbonyl]-10,11-dihydro-5H-pyrrolo[2,1-c][1,4]benzodiazepin-3-yl}[4-(1-pyrrolidinyl)-1-piperidinyl]methanone]	7.19
COc1ccccc1-c1ccc(C(=O)N2Cc3ccc(C(=O)N4CC[C@@H](N(C)C)C4)n3Cc3ccccc32)cc1C [Example 272, [(3R)-3-(Dimethylamino)pyrrolidinyl]{10-[(2′-methoxy-2-methyl[1,1′-biphenyl]-4-yl)carbonyl]-10,11-dihydro-5H-pyrrolo[2,1-c][1,4]benzodiazepin-3-yl}methanone]	2.61
COc1cc(-c2ccccc2C)c(Cl)cc1C(=O)N1Cc2ccc(C(=O)N3CC[C@@H](N(C)C)C3)n2Cc2ccccc21 [Example 273, {10-[(6-Chloro-3-methoxy-2′-methyl[1,1′-biphenyl]-4-yl)carbonyl]-10,11-dihydro-5H-pyrrolo[2,1-c][1,4]benzodiazepin-3-yl}[(3R)-3-(dimethylamino)pyrrolidinyl]methanone]	4.26
Cc1cc(C(=O)N2Cc3ccc(C(=O)NC(=N)N)n3Cc3ccccc32)ccc1-c1ccccc1C(F)(F)F [Example 8, N-[(10-{[2-methyl-2′-(trifluoromethyl)[1,1′-biphenyl]-4-yl]carbonyl}-10,11-dihydro-5H-pyrrolo[2,1-c][1,4]benzodiazepin-3-yl)carbonyl]guanidine]	6.37
Cc1cc(C(=O)N2Cc3ccc(C(=O)N4CCNCC4)n3Cc3ccccc32)ccc1-c1ccccc1C(F)(F)F [Example 7, 10,11-Dihydro-10-[[2-methyl-2′-trifluoromethyl-[1,1′-biphenyl]-4-yl]carbonyl]-3-(1-piperazinylcarbonyl)-5H-pyrrolo[2,1-c][1,4]benzodiazepine hydrochloride salt]	11.4
Cc1cc(C(=O)N2Cc3ccc(C(=O)N4CCC[C@H]4CN4CCCC4)n3Cc3ccccc32)ccc1-c1ccccc1C(F)(F)F [Example 258, (10-{[2-Methyl-2′-(trifluoromethyl)[1,1′-biphenyl]-4-yl]carbonyl}-10,11-dihydro-5H-pyrrolo[2,1-c][1,4]benzodiazepin-3-yl)[(2S)-2-(1-pyrrolidinylmethyl)pyrrolidinyl]methanone]	2.85
Cc1cc(C(=O)N2Cc3ccc(C(=O)N4CC[C@@H](N(C)C)C4)n3Cc3ccccc32)ccc1-c1ccccc1C(F)(F)F [Example 271, [(3R)-3-(Dimethylamino)pyrrolidinyl](10-{[2-methyl-2′-(trifluoromethyl)[1,1′-biphenyl]-4-yl]carbonyl}-10,11-dihydro-5H-pyrrolo[2,1-c][1,4]benzodiazepin-3-yl)methanone]	6.29
COc1ccccc1-c1ccc(C(=O)N2Cc3ccc(C(=O)N4CCN(C)CC4)n3Cc3ccccc32)cc1 [Example 48, {10-[(2′-Methoxy[1,1′-biphenyl]-4-yl)carbonyl]-10,11-dihydro-5H-pyrrolo[2,1-c][1,4]benzodiazepin-3-yl}(4-methyl-1-piperazinyl)methanone]	6.7
COc1cc(C(=O)N2Cc3ccc(C(=O)N4CCC[C@H]4CN4CCCC4)n3Cc3ccccc32)ccc1-c1ccccc1C(F)(F)F [Example 20, {[10-(2-Methoxy)-2′-trifluoromethyl-[1,1′-biphenyl]-4-yl]carbonyl}-[(2S)-[(2-pyrrolidin-1-yl)methyl]pyrrolidin-1-yl]-10,11-dihydro-5H-pyrrolo[2,1-c][1,4]benzodiazepin-3-yl-methanone]	1.81
COc1ccccc1-c1ccc(C(=O)N2Cc3ccc(C(=O)N4CCN(CCN5CCOCC5)CC4)n3Cc3ccccc32)cc1C [Example 206, {10-[(2′-Methoxy-2-methyl[1,1′-biphenyl]-4-yl)carbonyl]-10,11-dihydro-5H-pyrrolo[2,1-c][1,4]benzodiazepin-3-yl}{4-[2-(4-morpholinyl)ethyl]-1-piperazinyl}methanone]	3.66
O=C(c1ccc(-c2cccc3ccccc23)nc1)N1Cc2cccn2Cc2ccccc21 [Example 28, [6-(Naphthalen-1-yl)-pyridin-3-yl]-[10,11-dihydro-5H-pyrrolo[2,1-c][1,4]benzodiazepin-10-yl]methanone]	29.5
C=CCN1CCN(C(=O)c2ccc3n2Cc2ccccc2N(C(=O)c2cc(Cl)c(-c4ccccc4C)cc2OC)C3)CC1 [Example 219, (4-Allyl-1-piperazinyl){10-[(6-chloro-3-methoxy-2′-methyl[1,1′-biphenyl]-4-yl)carbonyl]-10,11-dihydro-5H-pyrrolo[2,1-c][1,4]benzodiazepin-3-yl}methanone]	12.1
COc1cccc(-c2cc(OC)c(C(=O)N3Cc4ccc(C(=O)N(C)CCN(C)C)n4Cc4ccccc43)cc2Cl)c1 [Example 87, 10-[(6-Chloro-3,3′-dimethoxy[1,1′-biphenyl]-4-yl)carbonyl]-N-[2-(dimethylamino)ethyl]-N-methyl-10,11-dihydro-5H-pyrrolo[2,1-c][1,4]benzodiazepine-3-carboxamide]	4.63
COc1ccccc1-c1ccc(C(=O)N2Cc3ccc(C(=O)N4CCN(CCN5CCOCC5)CC4)n3Cc3ccccc32)cc1 [Example 207, {10-[(2′-Methoxy[1,1′-biphenyl]-4-yl)carbonyl]-10,11-dihydro-5H-pyrrolo[2,1-c][1,4]benzodiazepin-3-yl}{4-[2-(4-morpholinyl)ethyl]-1-piperazinyl}methanone]	9.5
COc1cc(-c2ccccc2C)c(Cl)cc1C(=O)N1Cc2ccc(C(=O)N3CCCN(C)CC3)n2Cc2ccccc21 [Example 60, {10-[(6-Chloro-3-methoxy-2′-methyl[1,1′-biphenyl]-4-yl)carbonyl]-10,11-dihydro-5H-pyrrolo[2,1-c][1,4]benzodiazepin-3-yl}(4-methyl-1,4-diazepan-1-yl)methanone]	5.39
